In US7390630B1, “Method of identifying a compound that selectively inhibits cytokine-stimulated T cell induced production of TNF-alpha by monocytes” (Mathilda and Terence Kennedy Institute of Rheumatology Trust, priority 1999, dated 2008):

Assays:
Type in all cases: cell-based, Human
[1] = test system: monocyte TNFα production induced by anti-CD3 antibody stimulated T-cells (Ttcr cells); assay: Ttcr cell-induced TNFα production by monocytes (co-culture, ELISA)
Experimental: Human peripheral blood T cells and monocytes were isolated from single donor plateletpheresis residues (purchased from the North London Blood Transfusion service, Colindale, GB). Mononuclear cells were isolated by Ficoll/Hypaque centrifugation (specific density 1.077 g/ml, Nycomed Pharma AS, Oslo, Norway), prior to cell separation in a Beckman JE6 elutriator. Elutriation was performed in culture medium containing 1% heat-inactivated foetal calf serum (FCS) using methods known in the art (see Sebbag et al., 1997, Parry et al., 1997). T cell and monocyte purity were assessed by flow cytometry (see Sebbag et al., 1997).
Ttcr cells: Ttcr cells were prepared from elutriation enriched T cells by resuspending the cells at a density of 10^6 cells/ml in RPMI 1640 (containing 10% heat inactivated AB+ human serum (Biowhittaker, UK). Following resuspension, the cells were incubated (at 37° C. in a 5% CO2/95% humidified incubator) in 6-well culture plates with immobilised anti-CD3 monoclonal antibodies for 24 hours (OKT3, ATCC, Maryland, USA), the antibodies having previously been coated on to the 6-well culture plates at 10 μg/ml (overnight at 4° C.).
Following completion of the culture period, the Tck and Ttcr cells were harvested and washed three times in RPMI medium containing 1% heat-inactivated fetal calf serum (FCS), prior to fixation for 1 minute at 0° C. in PBS containing 0.05% glutaraldehyde, and neutralized with an equivalent volume of T lymphocyte neutralizing buffer containing 0.2 M glycine. […]
(§1) Reagents for the TNFα ELISA were provided by Dr. W. Buurman (Rijks Universiteit Limburg, Maastricht, Netherlands). […] The rabbit polyclonal antibody was detected using a peroxidase-conjugated goat anti-rabbit IgG (H+L) (Jackson Immunoresearch Laboratories Inc., Westgrove, PE, USA) followed by an appropriate substrate. […]
(§2) Monocytes were treated with M-CSF for 2 days as described above, infected with adenovirus containing either an insert encoding IκBα (AdvIκBα) or no insert (Adv0). The effect of IκBα over-expression on T cell-induced monocyte (ratio 5:1) TNFα production was then determined.

[2] = test system: monocyte TNFα production induced by cytokine stimulated T cells (Tck cells); assay: Tck cell-induced TNFα production by monocytes (co-culture, ELISA); conditions: T cells stimulated with IL-2, IL-6 and TNFα; results not shown
Experimental: Human peripheral blood T cells and monocytes were isolated from single donor plateletpheresis residues (purchased from the North London Blood Transfusion service, Colindale, GB). Mononuclear cells were isolated by Ficoll/Hypaque centrifugation (specific density 1.077 g/ml, Nycomed Pharma AS, Oslo, Norway), prior to cell separation in a Beckman JE6 elutriator. Elutriation was performed in culture medium containing 1% heat-inactivated foetal calf serum (FCS) using methods known in the art (see Sebbag et al., 1997, Parry et al., 1997). T cell and monocyte purity were assessed by flow cytometry (see Sebbag et al., 1997). […]
as §1, §2

[3] = test system: monocyte TNFα production induced by RA CD3+ enriched cells; assay: Monocyte TNFα production induced by fixed RA synovial CD3+ enriched T cells; conditions: for TNFα: LY294002 50 μM 30 min, Wortmannin 500 nM 30 min, AKTA 5 mM 30 min, Rapamycin 10 μM 60 min, untreated control 686 ± 59, mean ±SD; for TNFα / Percent change: RA T cells:monocytes 5:1, 18 h; for Percent change: change of TNFα versus untreated control, LY294002 50 μM, Wortmannin 500 nM, Rapamycin 10 μM
Experimental: Rheumatoid arthritis (RA) mononuclear cells were obtained from synovial tissue specimens provided by the Rheumatology Clinic, Charing Cross Hospital, London, UK. Tissue was teased into small pieces and digested in medium containing 0.15 mg/ml DNase type 1 (Sigma, UK) and 5 mg/ml collagenase (Roche, UK) for 1 to 2 hours at 37° C. After passing cells through nylon mesh to exclude cell debris, cells were washed and resuspended in RPMI medium (Biohittaker, Verviers, Belgium) (containing 10% heat-inactivated FCS) at a density of 1×10^6 cells/ml and used immediately.
CD3+ enriched cells were isolated from RA synovial mononuclear cells by direct, positive selection using Dynabeads (Dynal UK Ltd, Wirral, UK) coated with anti-CD3 monoclonal antibodies (anti-CD3 mAbs). Briefly, mononuclear cells (1×10^7) were cultured with 100 μl anti-CD3 mAb-coated Dynabeads for 20 minutes at 4° C. under constant rotation. Cells attached to beads were isolated using a magnetic particle concentrator (Dynal, Merseyside, UK) and cultured for 6 hours at 37° C. Detached cells were removed from magnetic beads and washed three times using the magnetic particle concentrator.
This technique allowed for isolation of CD3+ cells, yielding cells of high purity (>99%) and viability (>95%). Following isolation, CD3+ enriched cells were washed three times in RPMI medium containing 1% heat-inactivated FCS, fixed for 1 minute at 0° C. in phosphate-buffered saline (PBS) containing 0.05% glutaraldehyde, and neutralized with an equivalent volume of T lymphocyte neutralizing buffer containing 0.2 M glycine. Following a further three washes, the fixed CD3+ cells were resuspended (at a concentration of 2×10^6 cell/ml) in RPMI medium containing 5% heat-inactivated FCS, and stored for up to 7 days at 4° C. until used. Prior to use, CD3+ enriched cells were washed twice in complete medium.
Monocytes were cultured at 1×10^6 cells/ml in RPMI 1640 medium (containing 5% heat-inactivated FCS) in round-bottomed 96-well culture plates (Nunc Life Technologies Ltd., Paisley, Scotland) in the presence of fixed T cells at varying T-cell/monocyte ratios ranging from 1:1 to 7:1 (as indicated). In some experiments, a semi-permeable membrane insert (Nunc Life Technologies Ltd., Paisley, Scotland) was fitted into the culture wells to physically separate the monocytes from the T cells. In all experiments, efficient fixation of T cells was tested by incubating an aliquot of T-cells (7×10^6 cells/ml) in the absence of monocytes and assaying the amount of TNFα released by the cells under these conditions. Lipopolysaccharide (LPS, 10 ng/ml) was included in experiments as a positive control for monocyte cytokine production.
Reagents for the TNFα ELISA were provided by Dr. W. Buurman (Rijks Universiteit Limburg, Maastricht, Netherlands). The ELISA was performed using immobilized anti-TNFα mAb 61E71. and developed using a rabbit anti-TNFα polyclonal antibody. An alternative ELISA for TNFα is commercially available from Pharmingen. The rabbit polyclonal antibody was detected using a peroxidase-conjugated goat anti-rabbit IgG (H+L) (Jackson Immunoresearch Laboratories Inc., Westgrove, PE, USA) followed by an appropriate substrate. The sensitivity range of the assay was 1.6 to 5000 pg/ml.
For monocyte/T-cell co-culture experiments, monocytes were cultured with relevant enzyme inhibitors at 37° C. for varying periods of time (see legend to Table 2) prior to co-culture with fixed T-cells for 18 hours. Supernatants were harvested and assayed for presence of TNFα by ELISA. Cell suspensions were taken for determination of cell viability. […]
The effect of wortmannin and LY294002 was also studied on monocyte TNFα production induced by RA CD3+ ve enriched cells (see Table 2). Normal monocytes isolated by elutriation were treated with selective enzyme inhibitors for the designated times prior to co-culture with fixed rheumatoid CD3+ T cells at a ratio 5:1 (T cells to monocytes) for 18 hours. […]

Compound | effect on monocyte TNFα production induced by anti-CD3 antibody stimulated T cells ([1]; results not shown) | effect on monocyte TNFα production induced by cytokine stimulated T cells [2] | effect on TNFα production in monocytes stimulated by RA T-cells ([3]; AKTA 5 mM, rapamycin 10 μM, T cells:monocytes 5:1) | TNFα [3] | Percent change ([3]; AKTA 5 mM) | IC50 ([1]; Homo sapiens, Monocyte, T cells:monocytes 5:1, 18 h co-culture, read-out: IC50, inhibition of monocyte TNFα production induced by Ttcr cells) | TNFα ([3]; listed as wortmannin)
CO[C@H]1C[C@@H]2CC[C@@H](C)[C@@](O)(O2)C(=O)C(=O)N2CCCC[C@H]2C(=O)O[C@H]([C@H](C)C[C@@H]2CC[C@@H](O)[C@H](OC)C2)CC(=O)[C@H](C)/C=C(\C)[C@@H](O)[C@@H](OC)C(=O)[C@H](C)C[C@H](C)/C=C/C=C/C=C/1C [Rapamycin, rapamycin] | no effect | no effect | no significant effect | 399 ± 21 pg/mL | −42% | – | –
COC[C@H]1OC(=O)c2coc3c2[C@@]1(C)C1=C(C3=O)[C@@H]2CCC(=O)[C@@]2(C)C[C@H]1OC(C)=O [Wortmannin, wortmannin] | – | – | – | 7333 ± 304 pg/mL | +968% | 50 pM | 7333 ± 304 pg/mL
